Experiments:
[1] = system: locomotor activity in normal rats; assay: Locomotor activity in normal rats (grid line crossings); type: in vivo, Male Wistar rats; settings: for Locomotor (Peak) / Locomotor (Total): normal rats, dose not given; for Locomotor (Peak) / Locomotor (Total) / Effect on locomotor activity: s.c.; for Locomotor (Peak): at time of peak effect; for Locomotor (Total): total (cumulative) effect; for Ratio (Peak): ratio locomotor/stereotypy at time of peak effect; for Ratio (Total): ratio locomotor/stereotypy, total effect; for Effect on locomotor activity: whole dose range tested (amphetamine 0.1-5, fusaric acid 20-80, amphetaminils 0.1-10 mg/kg), 300 min
Experimental: (§1) Male Wistar rats (n=4 per group) were randomly allocated to each drug treatment group. Drugs were administered such that, with the exception of fusaric acid, each rat in each group received all doses of the drug or vehicle in a semi random manner according to the modified Latin Square in Table 1. Compounds were administered at the doses: 0.1, 1 and 10 mg/kg s.c. in 100% DMSO (vehicle). Amphetamine was administered at 0.1, 1 and 5 mg/kg s.c. in saline (vehicle). Fusaric acid was administered at 20, 40 and 80 mg/kg s.c. in saline (vehicle). Rats received each dose of fusaric acid (20, 40 and 80 mg/kg), doses given in order, starting with vehicle. A one-week interval was provided between doses.
(§2) At the start of the experiment, rats were placed in standard perspex behaviour boxes with a visible grid on the floor to allow determination of locomotor activity. The animals were allowed to acclimatise to their environment for 1 hour prior to drug/saline administration. Following drug administration animals were returned to the behaviour cages and locomotor activity was assessed for a further 5 hours or until baseline (zero activity for 30 minutes) was achieved, whichever was sooner. Locomotor activity was assessed by videoing the rats throughout the experiment, and counting the number of times a rat crossed a grid line over a period of 5 minutes every 10 minutes. Throughout the experiment animals were scored for stereotyped behaviours for 15 seconds every 10 minutes by a trained observer using the scoring methods described in Table 2.
Locomotor activity Data The mean and standard error for locomotor activity during 10 minutes for each rat at each time point was determined. […] Cumulative activity during the 300 min was also calculated, and the effect of dose of drug was analyzed by 1 way repeated measures ANOVA followed by Dunnett's test (GraphPad Prizm). Data was also analysed for significant fit to a sigmoidal-shaped log dose-response curve using non-linear regression analysis (GraphPad Prizm).

[2] = system: stereotyped behaviour in normal rats; assay: Induction of stereotyped behaviour in normal rats (stereotypy score 0-7); type: in vivo, Male Wistar rats; settings: for Stereotypy (Peak) / Stereotypy (Total): normal rats, dose not given; for Stereotypy (Peak) / Stereotypy (Total) / Effect on stereotypy: s.c.; for Stereotypy (Peak): stereotypy score at time of peak effect; for Stereotypy (Total): total stereotypy score; for Effect on stereotypy: whole dose range tested (amphetamine 0.1-5, fusaric acid 20-80, amphetaminils 0.1-10 mg/kg), 300 min
Experimental: as §1, §2
The mean and standard error for stereotypy activity for 15 seconds every 10 minutes for each rat at each time point was determined. […] Cumulative activity during the 300 min was also calculated, and the effect of dose of drug was analyzed by Kruskall Wallis one-way ANOVA (GraphPad Prizm). Data was also analysed for significant fit to a sigmoidal-shaped log dose-response curve using non-linear regression analysis (GraphPad Prizm)

## CC(N)Cc1ccccc1 (stereo not shown) [Amphetamine]
[1]; 5 mg/kg s.c.
  Time of maximum effect on locomotor activity after administration: 30 min
[1]; 5 mg/kg s.c., compared to vehicle
  Cumulative locomotor activity during the 300 min: significantly increased
[1]
  Locomotor (Peak): 125
  Locomotor (Total): 850
  Ratio (Peak): 25
  Ratio (Total): 10.5
  Effect on locomotor activity: dose-related increase in locomotor activity
[2]; 5 mg/kg s.c.
  Overall stereotypy during the 300 min: tended to increase overall stereotypy
[2]
  Stereotypy (Peak): 5
  Stereotypy (Total): 81
  Effect on stereotypy: log dose-related increase stereotypy

## CC(Cc1ccccc1)NC(C#N)c1ccccc1 (racemic) [Racemic amphetaminil, alpha-[(1-methyl-2-phenylethyl)amino]benzeneacetonitrile]
[1]
  Locomotor (Peak): 37
  Locomotor (Total): 560
  Ratio (Peak): 7.4
  Ratio (Total): 4.9
  Effect on locomotor activity: increased locomotor activity only at the highest dose of 10 mg/kg
[2]; 10 mg/kg s.c.
  Duration of stereotypy: sustained for the duration of the experiment
[2]; 0.1-10 mg/kg s.c., Kruskall Wallis
  Differences in overall stereotypy between dose groups: did not reach statistical significance
[2]
  Stereotypy (Peak): 5.0
  Stereotypy (Total): 115
  Effect on stereotypy: increased stereotypy in a log dose-related manner

## C[C@H](Cc1ccccc1)NC(C#N)c1ccccc1 (stereo partly drawn) [(R,R′), (R,S′)-amphetaminil, alpha-[(1R-methyl-2-phenylethyl)amino]-benzeneacetonitrile]
[1]; at both the time of peak effect and total effect
  Locomotor/stereotypy ratio compared with racemic amphetaminil: higher ratio
[1]
  Locomotor (Peak): 62
  Locomotor (Total): 625
  Ratio (Peak): 18.8
  Ratio (Total): 11
  Effect on locomotor activity: increased locomotor activity only at the highest dose of 10 mg/kg
[2]; FIGS. 7 and 8
  Stereotypy compared with racemic amphetaminil: less stereotypy than the racemic form of amphetaminil
[2]
  Stereotypy (Peak): 3.3
  Stereotypy (Total): 57
  Effect on stereotypy: tended to increase stereotypy at 10 mg/kg

From patent US20030118646A1, “(R, S'),(R, R')-amphetaminil, compositions and uses thereof” (priority 2001, published 2003)
